Results published in patent US7968526B2, “Antisense oligonucleotides directed to ribonucleotide reductase R2 and uses thereof in the treatment of cancer” (Lorus Therapeutics Inc., priority 2003, dated 2011).

What was measured:
[1] = system: HT-29 human colon cancer cells; test: HT-29 colon tumour growth in CD-1 nude mice, SEQ ID NO:1 alone (3.1); type: in vivo, human cells in mice
Experimental: Treatments lasted for 14 days thereafter. Antitumour activities were estimated by the inhibition of tumour volume, which was measured with a caliper on four different occasions over the treatment period. Each point represents mean tumour volume calculated from 5 animals per experimental group. […] Control animals (control) received saline alone for the same period. At the end of the treatments, the animals were sacrificed, tumours were excised and their weights were measured. Each bar represents mean tumour weight calculated from 6 animals per experimental group. […] Treatments lasted for 24 days thereafter. Antitumour activities were estimated by the inhibition of tumour volume, which was measured with a caliper at two-day intervals over the treatment period. Each point represents mean tumour volume calculated from 4 animals per experimental group. […] Treatments lasted for 24 days thereafter. Antitumour activities were estimated by the inhibition of tumour volume, which was measured with a caliper at two-day intervals over the treatment period. Each point represents mean tumour volume calculated from 4 animals per experimental group. […] Treatments lasted for 22 days thereafter. […] Each point represents mean tumour volume calculated from 5 animals per experimental group. […] Treatments lasted for 14 days thereafter. Antitumour activities were estimated by the inhibition of tumour volume, which was measured with a caliper on four different occasions over 16-day period. Each point represents mean tumour volume calculated from 5 animals per experimental group. […] Two different batches of SEQ ID NO:1, synthesized at different times (designated as batch 1 and batch 2), were tested to detect possible batch-specific effects. […] Treatments lasted for 34 days thereafter. Antitumour activities were estimated by the inhibition of tumour volume, which was measured with a caliper at two-day intervals over the treatment period. Each point represents mean tumour volume calculated from 5 animals per experimental group. […] Treatments lasted for 30 days thereafter. Antitumour activities were estimated by the inhibition of tumour volume, which was measured with a caliper at various time intervals over the span of 30 days. Each point represents mean tumour volume calculated from 6 animals per experimental group. […] All treatments were stopped at day 36. Antitumour activities were estimated by the inhibition of tumour volume, which was measured with a caliper. Each point represents mean tumour volume calculated from 5 animals per experimental group. […] All treatments were stopped at day 52. Mice treated with saline or one of the three chemotherapeutic agents were sacrificed at day 80 because the tumour became too large. Mice treated with SEQ ID NO:1 were kept for 16 days further to observe possible resurgence of resistant tumour growth. Antitumour activities were estimated by the inhibition of tumour volume, which was measured with a caliper.

[2] = Phase I study of SEQ ID NO:1: pharmacokinetics; conditions: patients
Experimental: On Day 1 a heparinized blood sample was collected at baseline and then at 1, 2, 3, 4 and 6 hours after start of infusion. On Days 8 and 15, a single heparinized sample was taken. On Day 22 a heparinized blood sample was collected prior to the end of infusion and at 0.25, 0.5, 1, 2, 4 and 6 hours following the end of infusion. Plasma was decanted and stored at −70° C.
Pharmacokinetic parameters were assessed. SEQ ID NO:1 was administered using a portable infusion pump in cycles of 21 days CVI followed by one week of rest. […] Doses were doubled in cohorts of 1-3 patients until the appearance of Gr 1 toxicity, with subsequent escalation of 20-30% in cohorts of 3 patients. DLT was defined as Gr 4 neutropenia lasting 3 days or with fever; Gr 4 thrombocytopenia (T) or Gr 3 T with Gr 1 bleeding; or Gr 3 non-hematologic toxicity.

[3] = system: human tumour cell xenografts; test: Human tumour cell xenografts in mice, compiled tumour weights (FIG. 29); type: in vivo, human cells in mice
Experimental: CD-1 athymic female nude mice, BALB/c nu/nu nude mice, SCID, and SCID beige mice were purchased from Charles River Laboratories (Montreal, Canada) and experiments were typically initiated when the mice were 6-7 weeks old. Human tumour cells were grown in appropriate growth medium and 3×10^6−1×10^7 cells suspended in 100 μl of PBS were subcutaneously injected into the right flank of the animals with a 23 gauge needle (cell number indicated in the figure legends). Each experimental group typically contained 10 mice. After the size of tumour reached a mean tumour volume of 50-100 mm^3, treatment was initiated. Antisense oligonucleotides (dissolved in saline) were administered by bolus infusion into the tail vein of animal every other day at the indicated dose. Anti-tumour activity was estimated by the measurement of tumour volume with a calliper at two-three day intervals. Tumour volume was calculated by a formula L×W×H/2, where L indicates length, W indicates width and H indicates height. Within 24 hours after the last treatment, the animals were sacrificed and tumour and body weights were measured.
Each data point represents tumour weight and standard error. […]

[4] = system: R3 mouse fibrosarcoma cells; test: R3 mouse fibrosarcoma tumour growth in C3H mice; type: in vivo
Experimental: Treatments lasted for 14 days thereafter. Anti-tumour activities were estimated by the inhibition of tumour volume, which was measured with a calliper at two-day intervals starting from day 9. Each point in FIG. 27A represents the mean tumour volume calculated from 6-7 animals per experimental group. […] SEQ ID NO:1 had significant anti-tumour activity compared to saline (P=0.0006), scrambled (P=0.0001) and mismatched (0.0002) controls.
At the end of the treatments, the animals were sacrificed, tumours were excised and their weights were measured. Each bar in FIG. 27C represents mean tumour weight and standard error calculated from 6-8 animals per experimental group. P values compared to saline were as follows: 0.5 mg/kg (P=0.04), 2 mg/kg (P=0.0001), 5 mg/kg (P=0.0015), 10 mg/kg (P=0.0001), 30 mg/kg (P=0.0001).

[5] = system: A2058 human skin cancer cells; test: A2058 melanoma growth in CD-1 nude mice (3.2); type: in vivo, human cells in mice
Experimental: (§1) Treatments lasted for 14 days thereafter. Antitumour activities were estimated by the inhibition of tumour volume, which was measured with a caliper on four different occasions over the treatment period. Each point represents mean tumour volume calculated from 5 animals per experimental group. […] Control animals (control) received saline alone for the same period. At the end of the treatments, the animals were sacrificed, tumours were excised and their weights were measured. Each bar represents mean tumour weight calculated from 6 animals per experimental group. […] Treatments lasted for 24 days thereafter. Antitumour activities were estimated by the inhibition of tumour volume, which was measured with a caliper at two-day intervals over the treatment period. Each point represents mean tumour volume calculated from 4 animals per experimental group. […] Treatments lasted for 24 days thereafter. Antitumour activities were estimated by the inhibition of tumour volume, which was measured with a caliper at two-day intervals over the treatment period. Each point represents mean tumour volume calculated from 4 animals per experimental group. […] Each point represents mean tumour volume calculated from 5 animals per experimental group. […] Antitumour activities were estimated by the inhibition of tumour volume, which was measured with a caliper on four different occasions over 16-day period. […]

[6] = system: Caki-1 human kidney cancer cells; test: Caki-1 kidney tumour growth in CD-1 nude mice (3.8); type: in vivo, human cells in mice
Experimental: as §1

5′-GGCTAAATCGCTCCACCAAG-3′ (all phosphorothioate, sugars by position and methylation of C not given here) [SEQ ID NO: 1, fully phosphorothioated antisense oligonucleotide that hybridizes to the coding region of R2 mRNA]
Inhibitory effect on tumour growth (tumour volume, FIG. 17A) ([1]; HT-29, CD-1 nude mice, 10 mg/kg i.v. every other day, 14 days): statistically significant inhibitory effects
Inhibitory effect on tumour growth (tumour weight, FIG. 17B) ([1]; HT-29, CD-1 nude mice, 0.4-6.0 mg/kg i.v. every other day for 14 days): statistically significant inhibitory effects on the growth of human colon adenocarcinoma in a dose-dependent manner
Inhibition of tumour weight ([1]; Human Colon Adenocarcinoma): ~80%
Inhibition of tumour size ([1]; Human Colon Adenocarcinoma in CD-1 nude mice, Day 18 after tumour implantation): approximately 80% on Day 18 after tumour
Dose dependence of tumour weight ([1]; in vivo): Dose-dependent decrease in tumour weight in
AUC, mean (coefficient of variation) ([2]; 37 mg/m^2/day CVI): 7.54 (141)^$ μg · hr/ml
Clearance ([2]; 37 mg/m^2/day CVI): 595 L/m^2/day
Cmax, mean (coefficient of variation) ([2]; 37 mg/m^2/day CVI): 0.09 (141) μg/ml
Css, mean (coefficient of variation) ([2]; 37 mg/m^2/day CVI): 0.03 (141) μg/ml
AUC, mean (coefficient of variation) ([2]; 74 mg/m^2/day CVI): 15.5 (141) μg · hr/ml
Cmax, mean (coefficient of variation) ([2]; 74 mg/m^2/day CVI): 0.61 (141) μg/ml
AUC, mean (coefficient of variation) ([2]; 148 mg/m^2/day CVI): 426 (87) μg · hr/ml
Clearance, mean (coefficient of variation) ([2]; 148 mg/m^2/day CVI): 244 (90) L/m^2/day
Cmax, mean (coefficient of variation) ([2]; 148 mg/m^2/day CVI): 2.2 (41) μg/ml
Css, mean (coefficient of variation) ([2]; 148 mg/m^2/day CVI): 0.77 (94) μg/ml
T1/2, mean (coefficient of variation) ([2]; 148 mg/m^2/day CVI): 0.79 (25) hr
AUC, mean (coefficient of variation) ([2]; 185 mg/m^2/day CVI): 340 (67) μg · hr/ml
Clearance, mean (coefficient of variation) ([2]; 185 mg/m^2/day CVI): 558 (119) L/m^2/day
Cmax, mean (coefficient of variation) ([2]; 185 mg/m^2/day CVI): 2.15 (57) μg/ml
Css, mean (coefficient of variation) ([2]; 185 mg/m^2/day CVI): 0.63 (98) μg/ml
T1/2, mean (coefficient of variation) ([2]; 185 mg/m^2/day CVI): 2.74 (171) hr
AUC, mean (coefficient of variation) ([2]; 222 mg/m^2/day CVI): 380 (94) μg · hr/ml
Clearance, mean (coefficient of variation) ([2]; 222 mg/m^2/day CVI): 483 (161) L/m^2/day
Cmax, mean (coefficient of variation) ([2]; 222 mg/m^2/day CVI): 2.98 (99) μg/ml
Css, mean (coefficient of variation) ([2]; 222 mg/m^2/day CVI): 1.24 (87) μg/ml
T1/2, mean (coefficient of variation) ([2]; 222 mg/m^2/day CVI): 1.43 (46) hr
mean steady-state plasma concentration ([2]; phase II dose (185 mg/m^2/day), preliminary analysis): 0.6 µg/mL
t1/2 ([2]; preliminary analysis): about 2 hrs
Effect on tumour growth and endpoint weight ([3]; all cancer cell lines tested): significant decrease in tumour growth (volume over time) and endpoint weight
p, difference in tumour weight between control and oligonucleotide treated groups ([3]; range of human tumour xenografts, 2.5 mg/kg to 10 mg/kg i.v. every second day, all cases): < 0.05
Inhibition of tumour weight ([4]; Mouse Fibrosarcoma): ~80%
Dose dependence of tumour weight ([4]; Mouse Fibrosarcoma in C3H mice at doses of 0.5 to 30 mg/kg): Dose-dependent decrease in tumour weight in
Inhibition of tumour volume ([4]; Mouse Fibrosarcoma in C3H mice, Day 15 after tumour implantation): approximately 80% on Day 15 after tumour laimpntation
Anti-tumour efficacy (tumour volume, FIG. 27A) ([4]; R3, C3H mice, 5 mg/kg i.v. every other day, 14 days): significant anti-tumour efficacy compared to saline, scrambled and mismatched controls
Dose dependence of anti-tumour activity (FIG. 27C) ([4]; R3, C3H mice, 0.5-30 mg/kg): dose-dependent anti-tumour activity
Inhibitory effect on tumour growth (tumour volume, FIG. 18A) ([5]; A2058, CD-1 nude mice, 10 mg/kg i.v. every other day, 24 days): strong inhibitory effects on the growth of human melanoma
Inhibition of tumour weight ([5]; Human Melanoma): ~80%
Inhibitory effect on tumour growth (tumour volume, FIG. 21A) ([6]; Caki-1, CD-1 nude mice, 10 mg/kg i.v. every other day to day 36): powerful inhibitory effects on the growth of human renal carcinoma cells, resulting in total regression of the tumours in three mice
Inhibition of tumour size ([6]; Human Renal Carcinoma (first entry of Table 5)): Approximately 90% inhibition of tumour size
